Measured values: patent US20060014699A1, “Aqueous pharmaceutical formulaton comprising the thrombin inhibitor melagatran and use of the formulation in the manufacture of a medicament for use by nasal administration in treating thromboembolism” (AstraZeneca AB, priority 2002, published 2006)

Columns and labels:
[1] = Bioavailability of intranasal melagatran in rats, with and without absorption enhancers; format: in vivo; conditions: rat, inhaled or intranasal
Protocol: Using standard techniques, melagatran was administered to rats in formulations with and without the enhancers SDS (sodium dodecyl sulfate) or EDTA. The bioavailability was measured by analysis of blood plasma samples using standrad techniques.

[2] = Rate and extent of absorption after intranasal administration to healthy male subjects; format: in vivo, human; conditions: healthy male humans; for bioavailability: male, human, plasma, inhaled or intranasal
Protocol: (§1) The rate and extent of absorption of melagatran as well as the safety and tolerability were investigated after intranasal administration to six healthy male subjects (between 20 and 40 years of age, body weight between 66 and 86 kg). The trial comprised three study days, separated by wash-out periods of 6-28 days. On study day 1, a single dose of 5 mg of melagatran was administered. The following two study days 10 mg and 20 mg, respectively, were administered.
(§2) Samples for determination of plasma concentration of melagatran (by LC-MS) and for degree of anticoagulation were collected before and up to 10 hours after drug administration. Safety measurements included blood pressure, heart rate and recording of adverse events.
(§3) The safety and tolerability of melagatran when administered nasally were considered satisfactory.

[3] = Safety and tolerability after intranasal administration to healthy male subjects; format: in vivo, human; conditions: healthy male humans, nasal administration, 5, 10 and 20 mg; blood pressure, heart rate, adverse events
Protocol: as §1, §2, §3

bioavailability ([1]; 20 umol/kg, melagatran alone (no enhancer), blood plasma samples, read-out: bioavailability): ~10%
bioavailability ([1]; plasma, 20 μmol/kg, formulations with enhancers SDS or EDTA, read-out: bioavailability with enhancers): ≤ 19%
absorption after intranasal administration (rate) ([2]; intranasal, 5-20 mg): rapid
bioavailability ([2]; 5 mg, intranasal, single dose 5 mg, six subjects, read-out: median bioavailability): 19%
bioavailability ([2]; 10 mg, intranasal, single dose 10 mg, six subjects, read-out: median bioavailability): 12%
bioavailability ([2]; 20 mg, intranasal, 5, 10 and 20 mg, read-out: bioavailability, range over the six subjects at the three doses): 7 to 45%
bioavailability ([2]; 20 mg, intranasal, single dose 20 mg, six subjects, read-out: median bioavailability): 19%
Compound: N=C(N)c1ccc(CNC(=O)[C@@H]2CCN2C(=O)[C@H](NCC(=O)O)C2CCCCC2)cc1 [melagatran, HOOC—CH2—(R)-Cgl-Aze-Pab]
dose dependence of rate or extent of absorption ([2]; intranasal, 5, 10 and 20 mg): no indication of a dose dependent rate or extent of absorption
safety and tolerability [3]: satisfactory
